The test system of this series is CCRIS mutagenicity, Ames/micronucleus/aberration tests. Briefly: CCRIS mutagenicity studies.
Where [1] appears, read: Test System: AMES SALMONELLA TYPHIMURIUM, Strain/Indicator: TA98, Metabolic Activation: NONE, Method: STANDARD PLATE.
Setting [2] is: Test System: AMES SALMONELLA TYPHIMURIUM, Strain/Indicator: TA98, Metabolic Activation: RAT, LIVER, S-9, AROCLOR 1254, Method: STANDARD PLATE.
[3] abbreviates: Test System: AMES SALMONELLA TYPHIMURIUM, Strain/Indicator: TA100, Metabolic Activation: NONE, Method: STANDARD PLATE.
Where [4] appears, read: Test System: AMES SALMONELLA TYPHIMURIUM, Strain/Indicator: TA100, Metabolic Activation: RAT, LIVER, S-9, AROCLOR 1254, Method: STANDARD PLATE.

Active and inactive are the calls of the source. No rule for the calls is given here.

Consider `Clc1nc(Cl)nc(Nc2ccccc2Cl)n1`, for which the mutagenic call is, setting by setting: (Test System: AMES SALMONELLA TYPHIMURIUM, Strain/Indicator: TA97, Metabolic Activation: HAMSTER, LIVER, S-9, AROCLOR 1254 (10 OR 30%), Method: PREINCUBATION) “inactive; negative”; (Test System: AMES SALMONELLA TYPHIMURIUM, Strain/Indicator: TA97, Metabolic Activation: RAT, LIVER, S-9, AROCLOR 1254 (10 OR 30%), Method: PREINCUBATION) “inactive; negative”; (Test System: AMES SALMONELLA TYPHIMURIUM, Strain/Indicator: TA98, Metabolic Activation: HAMSTER, LIVER, S-9, AROCLOR 1254 (10%), Method: PREINCUBATION) “inactive; negative”; (Test System: AMES SALMONELLA TYPHIMURIUM, Strain/Indicator: TA98, Metabolic Activation: HAMSTER, LIVER, S-9, AROCLOR 1254 (30%), Method: PREINCUBATION) “inactive; negative”; (Test System: AMES SALMONELLA TYPHIMURIUM, Strain/Indicator: TA98, Metabolic Activation: RAT, LIVER, S-9, AROCLOR 1254 (10%), Method: PREINCUBATION) “inactive; negative”; (Test System: AMES SALMONELLA TYPHIMURIUM, Strain/Indicator: TA98, Metabolic Activation: RAT, LIVER, S-9, AROCLOR 1254 (30%), Method: PREINCUBATION) “inactive; negative”. Further, the mutagenic call (Test System: AMES SALMONELLA TYPHIMURIUM, Strain/Indicator: TA100, Metabolic Activation: HAMSTER, LIVER, S-9, AROCLOR 1254 (10%), Method: PREINCUBATION) is “inactive; negative”; the mutagenic call (Test System: AMES SALMONELLA TYPHIMURIUM, Strain/Indicator: TA100, Metabolic Activation: HAMSTER, LIVER, S-9, AROCLOR 1254 (30%), Method: PREINCUBATION) is “inactive; negative”; the mutagenic call (Test System: AMES SALMONELLA TYPHIMURIUM, Strain/Indicator: TA100, Metabolic Activation: NONE, Method: PREINCUBATION) was “inactive; negative”; the mutagenic call (Test System: AMES SALMONELLA TYPHIMURIUM, Strain/Indicator: TA100, Metabolic Activation: RAT, LIVER, S-9, AROCLOR 1254 (10%), Method: PREINCUBATION) is “inactive; negative”; the mutagenic call (Test System: AMES SALMONELLA TYPHIMURIUM, Strain/Indicator: TA100, Metabolic Activation: RAT, LIVER, S-9, AROCLOR 1254 (30%), Method: PREINCUBATION) was “inactive; negative”; the mutagenic call (Test System: AMES SALMONELLA TYPHIMURIUM, Strain/Indicator: TA1535, Metabolic Activation: HAMSTER, LIVER, S-9, AROCLOR 1254 (10 OR 30%), Method: PREINCUBATION) was “inactive; negative”. In addition, the mutagenic call by setting is: (Test System: AMES SALMONELLA TYPHIMURIUM, Strain/Indicator: TA1535, Metabolic Activation: RAT, LIVER, S-9, AROCLOR 1254 (10 OR 30%), Method: PREINCUBATION) “inactive; negative”; (Test System: AMES SALMONELLA TYPHIMURIUM, Strain/Indicator: TA1537, Metabolic Activation: HAMSTER, LIVER, S-9, AROCLOR 1254 (10 OR 30%), Method: PREINCUBATION) “inactive; negative”; (Test System: AMES SALMONELLA TYPHIMURIUM, Strain/Indicator: TA1537, Metabolic Activation: RAT, LIVER, S-9, AROCLOR 1254 (10 OR 30%), Method: PREINCUBATION) “inactive; negative”; (Test System: CHINESE HAMSTER OVARY, Strain/Indicator: CHO-K1-BH4 (HGPRT)/6-THIOGUANINE, Metabolic Activation: NONE) “inactive; negative”; (Test System: CHINESE HAMSTER OVARY, Strain/Indicator: CHO-K1-BH4 (HGPRT)/6-THIOGUANINE, Metabolic Activation: S-9) “inactive; negative”; (Test System: E. COLI, Strain/Indicator: WP2 UVRA, Metabolic Activation: HAMSTER, LIVER, S-9, AROCLOR 1254, Method: STANDARD PLATE) “inactive; negative”. Moreover, the mutagenic call is “inactive; negative” (Test System: E. COLI, Strain/Indicator: WP2 UVRA, Metabolic Activation: HAMSTER, LIVER, S-9, Method: STANDARD PLATE); “inactive; negative” (Test System: E. COLI, Strain/Indicator: WP2 UVRA, Metabolic Activation: MOUSE, LIVER, S-9, AROCLOR 1254, Method: STANDARD PLATE); “inactive; negative” (Test System: E. COLI, Strain/Indicator: WP2 UVRA, Metabolic Activation: MOUSE, LIVER, S-9, Method: STANDARD PLATE); “inactive; negative” (Test System: E. COLI, Strain/Indicator: WP2 UVRA, Metabolic Activation: NONE, Method: STANDARD PLATE); “inactive; negative” (Test System: E. COLI, Strain/Indicator: WP2 UVRA, Metabolic Activation: RAT, LIVER, S-9, AROCLOR 1254, Method: STANDARD PLATE); “inactive; negative” (Test System: E. COLI, Strain/Indicator: WP2 UVRA, Metabolic Activation: RAT, LIVER, S-9, Method: STANDARD PLATE). Further, the mutagenic call is “active; positive” (Test System: MOUSE LYMPHOMA, Strain/Indicator: L5178Y (TK+/TK-), Metabolic Activation: NONE, Method: SUSPENSION/PLATE) and “active; positive” (Test System: MOUSE LYMPHOMA, Strain/Indicator: L5178Y (TK+/TK-), Metabolic Activation: RAT, LIVER, S-9, AROCLOR 1254, Method: SUSPENSION/PLATE).

For the compound `ClC(Cl)=C(Cl)c1c(Cl)c(Cl)c(Cl)c(Cl)c1Cl`, the mutagenic call is “inactive; negative” under setting [1], “inactive; negative” under setting [2], “inactive; negative” under setting [3] and “inactive; negative” under setting [4].

In the case of `Cc1ccc2nc3c4c(ccc3c(C)c2c1)[C@H](O)[C@@H](O)C=C4`, the mutagenic call under setting [4] was “active; positive”.

As to `CC(CCl)OC(C)CCl` (configuration not stated), the mutagenic call reads like this: (End Point: IN VITRO CHROMOSOMAL ABERRATIONS, Test System: CHINESE HAMSTER OVARY CELLS, Metabolic Activation: NONE) “inactive; negative; precipitation occurred at all doses”; (End Point: IN VITRO CHROMOSOMAL ABERRATIONS, Test System: CHINESE HAMSTER OVARY CELLS, Metabolic Activation: RAT, LIVER, S-9, AROCLOR 1254) “active; positive; precipitation occurred at 497, 730 and 993 ug/ml”.

In the case of `COc1ccccc1/C=C/C=C(/C#N)c1ccc(Br)cc1`, the mutagenic call (Test System: AMES SALMONELLA TYPHIMURIUM, Strain/Indicator: TA97A, Metabolic Activation: NONE, Method: STANDARD PLATE) is “active; positive”.

On to `O=[N+]([O-])c1cccc2c1-c1cccc3c([N+](=O)[O-])ccc-2c13`, for which the mutagenic call was “active; positive” (Test System: AMES SALMONELLA TYPHIMURIUM, Strain/Indicator: TA97, Metabolic Activation: NONE); “active; positive” (Test System: AMES SALMONELLA TYPHIMURIUM, Strain/Indicator: TA98(1,8-DNP6), Metabolic Activation: NONE); “active; positive” (Test System: AMES SALMONELLA TYPHIMURIUM, Strain/Indicator: TA98(NR), Metabolic Activation: NONE); “active; positive” (Test System: AMES SALMONELLA TYPHIMURIUM, Strain/Indicator: TA98, Metabolic Activation: NONE); “active; positive” (Test System: AMES SALMONELLA TYPHIMURIUM, Strain/Indicator: TA100, Metabolic Activation: NONE); “inactive; negative” (Test System: AMES SALMONELLA TYPHIMURIUM, Strain/Indicator: TA1535, Metabolic Activation: NONE). For the same compound, the mutagenic call was “active; positive” (Test System: AMES SALMONELLA TYPHIMURIUM, Strain/Indicator: TA1537, Metabolic Activation: NONE); “active; positive” (Test System: AMES SALMONELLA TYPHIMURIUM, Strain/Indicator: TA1538, Metabolic Activation: NONE); “active; positive” (Test System: AMES SALMONELLA TYPHIMURIUM, Strain/Indicator: TA1978, Metabolic Activation: NONE).

Turning to `CCC12OC1(C(=O)OC)C(=O)OC2C` (configuration not stated), the mutagenic call was “inactive; negative” (Test System: AMES SALMONELLA TYPHIMURIUM, Strain/Indicator: TA98, Metabolic Activation: NONE, Method: DISK ASSAY); “inactive; negative” under setting [1]; “inactive; negative” (Test System: AMES SALMONELLA TYPHIMURIUM, Strain/Indicator: TA98, Metabolic Activation: RAT, LIVER, S-9, AROCLOR 1254, Method: DISK ASSAY); “active; positive” under setting [2].

For `O=CNc1ccc(Oc2c(Cl)cc(Cl)cc2Cl)cc1`, the mutagenic call was “inactive; negative” under setting [3] and “active; positive” (Test System: AMES SALMONELLA TYPHIMURIUM, Strain/Indicator: TA100, Metabolic Activation: RAT, LIVER, S-9, KANECLOR 500, Method: STANDARD PLATE).

For the compound `C[C@]12CCC(=O)C=C1C=C[C@@H]1[C@@H]2CC[C@@]2(C)[C@H]1CC[C@@]2(O)CCC(=O)O`, the mutagenic call is, setting by setting: (End Point: IN VITRO MICRONUCLEUS, Test System: HUMAN PERIPHERAL LYMPHOCYTES, Metabolic Activation: NONE) “inactive; negative”; (End Point: IN VITRO MICRONUCLEUS, Test System: HUMAN PRIMARY HEPATOCYTES (FEMALE), Metabolic Activation: NONE) “inactive; negative”; (End Point: IN VITRO MICRONUCLEUS, Test System: RAT PRIMARY HEPATOCYTES (MALE/FEMALE), Metabolic Activation: NONE) “active; positive”.

Values taken from PubChem BioAssay AID1259407 (Chemical Carcinogenesis Research Information System (CCRIS), 2018).
